Measured values as given in publication PMC12970513, “Unsaturated Phosphorus Electrophiles to Probe Protein Tyrosine Phosphatases” (Angewandte Chemie (International Ed. in English), 2026).

Tested on: PTP1B in MCF-7 cell lysate
Test: Lysate labeling by western blot, MCF-7
Parameters: species or system human
Conditions: 25–500 µM, 4 h, MCF-7 lysate 4 mg/mL
Procedure: To verify a consistent labeling profile by TMR‐PO, we tested additional PTP1B‐containing mammalian lysates. […] Therefore, we attempted to identify conditions where more intense labeling is noticeable. […] Increasing reaction time led to a proportional increase in biotin‐signal overlapping with the PTP1B band. […] A 4‐h incubation was chosen for the following experiments for ease of protocol and due to the robust labeling observed.
In that respect, following a 4‐h incubation time, we tested increasing concentrations of bio‐PO up to 500 µM to further increase the labeling efficiency. […] This highlights that labeling is also consistent with the abundance of PTP1B in these cell lines, which was measured by quantitative proteomics (Figure 5b). […]
For western blot analysis, samples resolved by SDS-PAGE were transferred to a polyvinylidene difluoride (PVDF) membrane using a Trans-Blot Turbo (Bio-Rad) semi dry blotting system according to the manufacturer`s instructions. […] The HRP signal was detected using the Pierce ECL Western Blotting Substrate (ThermoFisher Scientific) and imaged using the ChemiDoc (Bio-Rad) imaging system. […] Biotin was probed against using Streptavidin-horse radish peroxidase (HRP) conjugate (Thermo Fisher Scientific, N100) at a 1:5000 dilution for 1 hour at room temperature and the HRP signal was detected as mentioned above. […]

SMILES	labeling of MCF-7 lysate by small molecule control SM-PN	labeling of MCF-7 lysate by small molecule control SM-PO
C#CP(=O)(O)Nc1ccc(CCNC(=O)CCCC[C@@H]2SC[C@@H]3NC(=O)N[C@@H]32)cc1 [SM-PN, N-(4-(2-biotinamidoethyl)phenyl)-P-ethynylphosphonamidic acid]	No labeling was observed	
C#CP(=O)(O)Oc1ccc(CCNC(=O)CCCC[C@@H]2SC[C@@H]3NC(=O)N[C@@H]32)cc1 [SM-PO, 4-(2-biotinamidoethyl)phenyl ethynylphosphonic acid monoester]		a band with increasing intensity was apparent in the biotin signal upon concentration increase
